We go through 3 molecules from patent US7598377B2, “Inhibition of phosphoinositide 3-kinase β” (AstraZeneca AB, priority 2002, dated 2009).

For assay [1], the system named is platelets on immobilized vWf. As to the kind of experiment: In vitro flow studies: platelet calcium flux and adhesion on immobilized vWf. Type of assay: cell-based. Particulars: vWf matrix, shear rate gradient up to 10,000 s^−1 over 1 s. The procedure:
The use of an in vitro-flow based adhesion assay enables us to simultaneously analyze platelet adhesion dynamics and activation (by monitoring cytosolic calcium flux) on immobilized von Willebrand factor (vWf). Briefly, isolated platelets are perfused through vWf (100 μg/ml) coated microcapillary tubes and analysis of cytosolic calcium flux conducted in real-time by confocal microscopy.
Washed platelets (1.5×10^9) suspended in PWB were incubated with the calcium indicator dyes, Oregon Green 488 BAPTA-1, AM (1 μM) and Fura Red, AM (1.25 μM), for 30 min at 37° C. Platelets were washed twice with PWB prior to being resuspended in Tyrode's buffer containing 1 mM calcium.
For static adhesion assays, platelets were allowed to settle on the surface of vWf-coated coverslips for 30 min at 37° C. For flow assays, platelets were either perfused over a vWf-coated microcapillary tube at a constant shear rate of 600, 1800 or 10,000 s^−1 or allowed to settle on the surface of a vWf-coated microcapillary tube prior to being accelerated through a shear gradient of 10,000 s^−1 over a 1 s interval. Real time platelet calcium flux in individual platelets was monitored at 1 s intervals over the 30 min incubation period or at 0.586 s intervals for up to 175 s for static and flow-based assays, respectively.
Background: Calcium flux is commonly read through the fluorescence of an indicator in the cells.

In the next assay the test system is T1, various isoforms of PI3K.
T1 construct: The γ isoform was produced as a recombinant protein in the Kinacia laboratories
Particulars: measured IC50 stated to agree with previously reported values; read-out: IC50 against the various isoforms of PI3K; cited from earlier work.

Assay [2] has as its system carotid artery cyclic flow reductions in rat. As to the kind of experiment: Animal model of internal carotid artery occlusion (Folts). The class given is in vivo. Particulars: 14.0 mg/kg via the jugular vein. An excerpt: This model is used to investigate the effects of antithrombotic drugs on clotting time in vivo in response to a crash injury followed by arterial stenosis.
The carotid artery of an anesthetized rat is dissected out, and an electromagnetic flow probe is placed around the artery to measure blood flow. Proximal to the flow probe, the artery is clamped with surgical forceps covered with silicone tubing to cause intimal and medial damage to the vessel wall. A ligature, or plastic cylinder of appropriate inside diameter is laced around the artery to produce a 70% reduction in arterial diameter.
Platelets aggregate in the area of the stenosed and damaged arterial vessel, gradually forming an occlusive platelet thrombus, seen as a decrease in blood flow. As the thrombus forms, blood pressure increases, causing the thrombus to fragment and embolize distal to the stenosed site. […] This causes a sudden restoration of blood flow. Platelets again aggregate in the area of the stenosed and damaged arterial vessel, repeating the thrombus-embolization pattern. This acute, platelet-mediated thrombus formation, followed by embolization, causes Cyclic Flow Reductions (CFR) in blood flow. Once a rat produces regular CFRs, an anti-thrombotic compound or vehicle control is administered via the jugular vein.

Another assay has as its system neutrophils. The experiment in a line: Neutrophil ROS response (fmlp, DHR, FACS). The class given is cell-based, human. Particulars: fmlp stimulation, read-out: ROS release from neutrophils Example 14 IC50/. The method, then: 3 ml of preservative free whole blood was placed in a 50 ml conical tube. 48 ml of erythrocyte lysing solution and gently mixed by inversion for 10 min at 25° C. on a haematology nutator and subsequently centrifuged for 10 min at 350×g at 25° C. in a table top centrifuge. The Leukocyte rich pellet was resuspended in phosphate buffered saline supplemented with […] (PBS-gel) and centrifuged as above. The Leukocyte pellet was washed once with Hanks' balanced salt solution (HBSS) and resuspended at a final cell count of 2×10^6/ml and used immediately.
Reactive Oxygen Species (ROS) generation is one of the hall-marks of neutrophil activation. A number of chemokines and cytokines potentiate ROS generation by neutrophils. […] ROS generation was measured by monitoring the oxidation of intracellular dihydrorhodamine 123 (DHR) via fluorescence activated cell sorting (FACS) by modification of the method of Robinson et al., (pp 9.7.5-9.7.9 in Curr. Protocols in Cytometry (1997)). A Leukocyte suspension was bulk loaded with 2 μl of 50 mM DHR per ml cells ([…]) and incubated at 37° C. for 12 min. […] Fluorescence base-line data was calibrated using these gated control neutrophils. Stimulated cell samples were analysed and linear green fluorescence (DHR) was monitored for 5000 gated neutrophils from each sample. […]

For assay [3], the system named is PI 3-kinase immunoprecipitated from human platelets (p85/110 form). The experiment in a line: In vitro PI 3-kinase assay (Example 8), Platelet IP (p85). The class given is biochemical. Particulars: read-out: Platelet IP (p85) IC50s. The procedure:
The effect of pyridine-substituted compounds on PI 3-kinase activity was determined using an in vitro PI 3-kinase assay. This assay was performed using PI 3-kinase immunoprecipitated from human platelets as the enzyme and PI as the substrate. The PI 3-kinase activity was quantitated by measuring the enzymatic incorporation of [^32P] into PI, forming PI([^32P]-3)P, as previously described (Susa et al., 1992, The Journal of Biological Chemistry 267(32):22951-22956.
Washed human platelets were lysed in Triton X-100 lysis buffer (10 mM Tris, pH 7.4, 1% Triton X-100, 2 mM EDTA, 1 mM PMSF) for 30 minutes. The Triton X-100 insoluble fraction was removed by centrifugation of the cell lysates at 15,000 g for 10 minutes. PI 3-kinase was immunoprecipitated by mixing 500 μg of the cell lysate with 1 μg of a rabbit anti-rat antibody against the p85/110 form of PI 3-kinase and 30 μl of 50% Protein A-sepharose beads for 2 hours at 4° C. The Protein A-sepharose-bound PI 3-kinase was isolated by pelleting the beads at 15,000 g for 5 seconds, and washing three times with ice-cold Triton X-100 lysis buffer followed by four washes with PI 3-kinase assay buffer (20 mM HEPES, pH 7.4, 1 mM EGTA, 5 mM MgCl2).
PI stored in CHCl3 was dried under N2, resuspended in the lipid buffer (50 mM HEPES, pH 7.2, 1 mM EDTA) at a final concentration of 330 μg/ml, and sonicated for 6 minutes on ice. PI([^32P]-3)P was generated by mixing the immunoprecipitated PI 3-kinase for 20 minutes with 40 μl of the PI, 10 μl of ATP (1 mM) and ^32P-r-ATP (0.5 μCi, 1 μCi/nmol), 10 μl of 10× kinase buffer, in a final assay volume of 100 μl adjusted with H2O. TGX-was preincubated with the PI 3-kinase for 5 minutes prior to the addition of ATP. The assay was terminated with 100 μl of 1 N HCl, and the PI([^32P]-3)P product extracted with 200 μl chloroform:methanol (1:1) and 500 μl 2 M KCl. The PI([^32P]-3)P in the chloroform phase was resolved by thin layer chromatography using a solvent system containing CHCl3:MeOH:HAC:H2O (43:38:5:7) (v:v:v:v), and visualized by autoradiography. The PI([^32P]-3)P spots were then scraped off from the TLC plates, deacylated with 1 ml methylamine:butanol:methanol (42:9:47) (v:v:v) for 4 hours at 53° C., and quantitated using a liquid scintillation counter (LKB 1209 RackBETA).

The next assay deals with platelet rich plasma. As to the kind of experiment: CD9-antibody induced platelet aggregation of platelet rich plasma. Type of assay: cell-based. Particulars: read-out: Platelet aggregation v. CD9 antibody Example 10 IC50/. The procedure:
The inhibitory effect of TGX286 and KN327 on platelet aggregation induced by the antibody CD9 was examined in platelet rich plasma (PRP). A suspension of PRP was incubated with 20-100 nM TGX286 or control buffer (0.1% DMSO) and treated with an aliquot of the antibody. Aggregation under stirring was monitored in a four channel aggregometer for 10 minutes. The level of aggregation was measured as the change in light transmission through the sample cell.

Assay [4] has as its system platelet thrombus formation in citrated whole blood. The experiment in a line: Platelet thrombus formation under flow (Example 12, 600 s^−1). Particulars: read-out: Inhibition of Thrombus formation Example 12 IC50/. Type of assay: cell-based. The procedure: Blood was perfused through von Willebrand factor—(vWf) coated microcapillary tubes for 2 minutes at 600 s^−1. Non-adherent cells were removed by perfusion of buffer for 2 minutes at 600 s^−1 and any adherent erythrocytes lysed through treatment with 1% ammonium oxalate. Adherent platelets were then lysed through addition of 1% Triton X-100 and lactate dehydrogenase (LDH) levels (U/L) analysed by spectrophotometry.

The target in the next assay is T2, P110 δ (Homo sapiens, UniProt O00329).
T2 construct: The δ isoform was immunoprecipitated from THP-1 cells; endogenous in cells; host or cells: THP-1 cells (immunoprecipitated with antibody sc-7176)
T2 sequence (O00329 whole entry, canonical isoform): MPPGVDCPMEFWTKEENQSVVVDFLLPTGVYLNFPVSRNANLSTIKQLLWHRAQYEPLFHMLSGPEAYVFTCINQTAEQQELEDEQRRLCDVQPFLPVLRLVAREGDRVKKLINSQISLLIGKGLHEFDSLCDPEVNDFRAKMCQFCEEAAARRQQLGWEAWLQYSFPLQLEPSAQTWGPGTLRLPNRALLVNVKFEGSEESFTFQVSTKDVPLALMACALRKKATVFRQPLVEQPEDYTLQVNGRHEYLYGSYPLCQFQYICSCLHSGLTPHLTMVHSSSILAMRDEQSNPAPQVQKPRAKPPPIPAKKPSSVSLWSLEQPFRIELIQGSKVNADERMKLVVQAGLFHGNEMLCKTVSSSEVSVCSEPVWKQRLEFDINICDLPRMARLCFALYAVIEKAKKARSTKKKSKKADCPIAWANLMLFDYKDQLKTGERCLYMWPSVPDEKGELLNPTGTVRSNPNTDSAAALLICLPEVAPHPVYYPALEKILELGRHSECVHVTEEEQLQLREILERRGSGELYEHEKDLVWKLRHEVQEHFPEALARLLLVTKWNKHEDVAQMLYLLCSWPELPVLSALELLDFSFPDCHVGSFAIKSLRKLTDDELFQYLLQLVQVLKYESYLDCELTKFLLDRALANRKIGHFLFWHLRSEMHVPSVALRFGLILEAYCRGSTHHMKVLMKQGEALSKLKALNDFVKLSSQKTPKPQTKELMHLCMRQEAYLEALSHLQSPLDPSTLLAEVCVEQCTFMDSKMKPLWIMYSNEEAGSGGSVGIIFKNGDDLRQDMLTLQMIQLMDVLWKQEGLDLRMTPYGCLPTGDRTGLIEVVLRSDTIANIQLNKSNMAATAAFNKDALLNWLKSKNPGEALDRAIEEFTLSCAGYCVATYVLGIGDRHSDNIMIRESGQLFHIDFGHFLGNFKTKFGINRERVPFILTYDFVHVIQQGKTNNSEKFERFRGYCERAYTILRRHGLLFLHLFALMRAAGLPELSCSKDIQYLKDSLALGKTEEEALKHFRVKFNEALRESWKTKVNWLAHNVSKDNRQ
T2 sequence (P27986 whole entry partner, canonical isoform): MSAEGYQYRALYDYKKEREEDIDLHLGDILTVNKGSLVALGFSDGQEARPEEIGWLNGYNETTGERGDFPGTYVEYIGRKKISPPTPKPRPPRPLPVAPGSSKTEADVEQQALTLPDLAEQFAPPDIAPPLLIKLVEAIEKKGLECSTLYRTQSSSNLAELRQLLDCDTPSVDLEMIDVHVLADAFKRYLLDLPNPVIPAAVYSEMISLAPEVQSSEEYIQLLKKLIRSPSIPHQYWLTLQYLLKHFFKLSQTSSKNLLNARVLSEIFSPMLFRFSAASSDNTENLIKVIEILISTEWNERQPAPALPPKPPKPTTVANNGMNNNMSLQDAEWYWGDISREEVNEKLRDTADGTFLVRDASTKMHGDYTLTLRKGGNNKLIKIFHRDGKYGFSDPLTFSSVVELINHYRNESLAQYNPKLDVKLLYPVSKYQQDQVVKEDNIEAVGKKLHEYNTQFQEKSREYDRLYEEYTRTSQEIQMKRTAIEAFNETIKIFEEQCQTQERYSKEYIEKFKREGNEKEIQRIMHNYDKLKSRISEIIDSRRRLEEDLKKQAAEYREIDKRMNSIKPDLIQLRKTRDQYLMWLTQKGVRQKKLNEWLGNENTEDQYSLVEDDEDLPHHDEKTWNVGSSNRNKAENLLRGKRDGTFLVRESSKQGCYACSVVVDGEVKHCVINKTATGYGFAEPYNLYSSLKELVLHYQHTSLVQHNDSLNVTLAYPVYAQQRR
The experiment in a line: Isoform selective in vitro PI3K enzyme assay (Example 13), δ from THP-1 cells. The class given is biochemical. Particulars: read-out: P110 δ IC50s. The procedure: In vitro enzyme assays were conducted as a primary screen to determine drug candidate isoform affinity and specificity. […] The γ isoform was produced as a recombinant protein in the Kinacia laboratories. […] Standard phosphorylation assays using phosphatidylinositol and ^32P were used to measure the enzyme activity in the immunoprecipates in the presence or absence of an inhibitor. Enzyme activity was determined over a range of inhibitor concentrations to establish an IC50 value.

In a further assay the target is T3, P110 γ (Homo sapiens, UniProt P48736).
T3 construct: made in house
T3 sequence (P48736 whole entry, species assumed): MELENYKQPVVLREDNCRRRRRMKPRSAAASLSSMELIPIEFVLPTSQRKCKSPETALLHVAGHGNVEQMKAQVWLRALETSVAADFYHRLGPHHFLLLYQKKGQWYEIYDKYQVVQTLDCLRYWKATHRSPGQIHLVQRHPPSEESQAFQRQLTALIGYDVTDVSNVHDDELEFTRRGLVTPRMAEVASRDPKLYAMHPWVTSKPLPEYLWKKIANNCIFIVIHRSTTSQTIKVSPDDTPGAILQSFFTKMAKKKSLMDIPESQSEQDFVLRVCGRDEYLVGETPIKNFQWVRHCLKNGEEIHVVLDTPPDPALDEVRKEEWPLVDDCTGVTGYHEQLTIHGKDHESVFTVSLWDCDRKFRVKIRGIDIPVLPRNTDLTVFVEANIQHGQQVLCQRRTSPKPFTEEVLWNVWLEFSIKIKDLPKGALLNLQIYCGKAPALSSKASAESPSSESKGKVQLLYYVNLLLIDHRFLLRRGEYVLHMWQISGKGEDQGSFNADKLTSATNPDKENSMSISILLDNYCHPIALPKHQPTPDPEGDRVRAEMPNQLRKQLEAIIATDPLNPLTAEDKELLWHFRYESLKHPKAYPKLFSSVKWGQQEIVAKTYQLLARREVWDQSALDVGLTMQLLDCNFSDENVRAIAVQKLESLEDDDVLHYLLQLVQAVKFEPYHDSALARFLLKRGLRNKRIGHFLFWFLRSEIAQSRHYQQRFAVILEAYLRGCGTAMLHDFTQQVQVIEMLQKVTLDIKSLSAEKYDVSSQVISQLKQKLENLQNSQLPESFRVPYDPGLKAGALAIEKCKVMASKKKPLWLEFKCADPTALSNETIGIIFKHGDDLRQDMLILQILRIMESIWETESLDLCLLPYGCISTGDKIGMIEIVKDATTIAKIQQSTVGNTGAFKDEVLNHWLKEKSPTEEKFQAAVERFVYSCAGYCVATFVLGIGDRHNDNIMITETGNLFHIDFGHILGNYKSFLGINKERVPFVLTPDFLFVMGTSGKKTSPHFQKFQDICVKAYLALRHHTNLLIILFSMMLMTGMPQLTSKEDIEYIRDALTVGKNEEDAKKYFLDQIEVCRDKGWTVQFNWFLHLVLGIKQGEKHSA
As to the kind of experiment: Isoform selective in vitro PI3K enzyme assay (Example 13), γ recombinant. Type of assay: biochemical. Particulars: read-out: P110 γ IC50s. The procedure: In vitro enzyme assays were conducted as a primary screen to determine drug candidate isoform affinity and specificity. The α and β isoforms of the PI3K were immunoprecipitated from a platelet lysate, using an antibodies obtained from Santa Cruz Biotechnology, that recognized specific regions of p110α (sc-7174) and β (sc-603) isoforms. The γ isoform was produced as a recombinant protein in the Kinacia laboratories. […] Standard phosphorylation assays using phosphatidylinositol and ^32P were used to measure the enzyme activity in the immunoprecipates in the presence or absence of an inhibitor. Enzyme activity was determined over a range of inhibitor concentrations to establish an IC50 value.

The next assay addresses T4, P110 β isoform (Homo sapiens, UniProt P42338).
T4 construct: The α and β isoforms of the PI3K were immunoprecipitated from a platelet lysate; from tissue; host or cells: washed platelets (lysate, immunoprecipitated with anti-p110β antibody)
As to the kind of experiment: Isoform selective in vitro PI3K enzyme assay (Example 13), β. Type of assay: biochemical. The method, then: In vitro enzyme assays were conducted as a primary screen to determine drug candidate isoform affinity and specificity. The α and β isoforms of the PI3K were immunoprecipitated from a platelet lysate, using an antibodies obtained from Santa Cruz Biotechnology, that recognized specific regions of p110α (sc-7174) and β (sc-603) isoforms. The γ isoform was produced as a recombinant protein in the Kinacia laboratories. The δ isoform was immunoprecipitated from THP-1 cells in a similar manner using a δ isoform specific antibody (sc-7176). Standard phosphorylation assays using phosphatidylinositol and ^32P were used to measure the enzyme activity in the immunoprecipates in the presence or absence of an inhibitor. Enzyme activity was determined over a range of inhibitor concentrations to establish an IC50 value.

The subject of a further assay is washed platelets. As to the kind of experiment: Flow-based reconstitution assay (platelet adhesion to vWf). Type of assay: cell-based. Particulars: 1800 s^−1. The method, then:
The platelets and reconstituted red blood cells were perfused through vWf-coated glass microslides for 1 minute at a shear rate of 1800 s^−1. Non-adherent cells were removed by washing for 10 minutes at 1800 s^−1 and the number of adherent platelet were quantitated and expressed as the mean±SEM.

Another assay has as its system U937 cells. The experiment in a line: Cell proliferation assay. Conditions: Homo sapiens, U-937; read-out: Anti-proliferative activity v. U937 cells Example 16 IC50/. The class given is cell-based. The text has this:
The cytotoxic activity of the compounds was monitored over four days by counting cell number, and determining cell viability using a colorimetric assay of metabolic activity.

Like-named read-outs stand apart in the source and are kept apart here.

T4 sequence (P42338 whole entry, canonical isoform): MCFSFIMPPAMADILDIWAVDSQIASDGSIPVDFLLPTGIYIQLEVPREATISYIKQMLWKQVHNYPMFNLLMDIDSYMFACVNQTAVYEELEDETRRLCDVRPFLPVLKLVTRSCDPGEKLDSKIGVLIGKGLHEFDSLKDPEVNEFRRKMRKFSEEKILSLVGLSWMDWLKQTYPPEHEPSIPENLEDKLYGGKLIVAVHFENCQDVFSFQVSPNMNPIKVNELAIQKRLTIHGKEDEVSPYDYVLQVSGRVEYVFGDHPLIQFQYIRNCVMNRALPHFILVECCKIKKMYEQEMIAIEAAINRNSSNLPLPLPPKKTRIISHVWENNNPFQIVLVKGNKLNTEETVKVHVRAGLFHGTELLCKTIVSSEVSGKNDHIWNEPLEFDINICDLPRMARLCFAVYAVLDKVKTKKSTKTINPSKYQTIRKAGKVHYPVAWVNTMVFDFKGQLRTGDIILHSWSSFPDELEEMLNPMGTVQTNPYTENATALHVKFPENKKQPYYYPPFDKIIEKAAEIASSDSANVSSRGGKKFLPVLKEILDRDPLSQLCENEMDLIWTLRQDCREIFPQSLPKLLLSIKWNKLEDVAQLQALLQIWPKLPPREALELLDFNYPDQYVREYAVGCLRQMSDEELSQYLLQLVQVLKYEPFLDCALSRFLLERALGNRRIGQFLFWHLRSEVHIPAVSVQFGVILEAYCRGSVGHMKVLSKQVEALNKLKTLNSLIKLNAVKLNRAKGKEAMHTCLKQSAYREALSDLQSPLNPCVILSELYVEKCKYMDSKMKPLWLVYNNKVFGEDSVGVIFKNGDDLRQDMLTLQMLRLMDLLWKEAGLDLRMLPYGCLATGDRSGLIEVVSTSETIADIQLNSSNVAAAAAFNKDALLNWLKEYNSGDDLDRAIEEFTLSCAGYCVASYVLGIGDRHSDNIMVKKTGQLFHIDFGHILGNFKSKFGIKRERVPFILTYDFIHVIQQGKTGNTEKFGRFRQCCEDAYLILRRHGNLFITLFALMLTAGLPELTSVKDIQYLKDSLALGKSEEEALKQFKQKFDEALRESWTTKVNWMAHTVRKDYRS
T4 sequence (P27986 whole entry partner, canonical isoform): as the sequence (P27986 whole entry partner, canonical isoform) above

With `O=c1cc(N2CCOCC2)oc2c(-c3ccccc3)cccc12` [LY294002, 8-phenyl-2-(4-morpholinyl)-4H-benzopyran-4-one, reference compound], the “platelet responses to accelerated shear” value in assay [1] is “eliminates platelet responses to accelerated shear”. Moreover, the IC50 with various isoforms of PI3K is 500 to 1500 nM.
For the molecule “8-(1-(2-aminophenylamino)ethyl-2-(4-pyridinyl)-4H-benzopyran-1-one [KN327]”, the “treated animals returned to baseline within 10 minutes” value in [2] was found to be 80%. Further, the IC50 in the assay with neutrophils came out at 78 nM; in assay [3], 20 nM; in the assay with platelet rich plasma, 200 nM; in assay [4], 250 nM; at P110 δ, 500 nM; at P110 γ, 15000 nM.
With `Cc1cc(C(C)Nc2ccccc2)c2oc(-c3ccncc3)cc(=O)c2c1` (stereo not shown) [TGX-286, 8-1-(phenylamino)ethyl-6-methyl-2-(4-pyridinyl)-4H-1-benzopyran-4-one], the “treated animals returned to baseline within 10 minutes” value in assay [2] was found to be 80%. The IC50 was 5 nM with neutrophils (Homo sapiens, Neutrophil); 2 nM in assay [3]; 2 nM against P110 β isoform; 100 nM in the assay with platelet rich plasma; 500 nM in [4] (Platelet); 5000 nM in the assay with U937 cells. Further, the “decrease in platelet adhesion” value in the assay on washed platelets (10 nM) is 51%; with washed platelets (25 nM), 67%; in the assay with washed platelets (50 nM), 86%.
